Measured values published in US20070092577A1, “Dietary calcium for reducing the production of reactive oxygen species” (University of Tennessee Research Foundation, priority 2005, published 2007).

How the values were obtained:
[1] = system: NADPH oxidase; assay: NADPH oxidase expression in 3T3-L1 adipocytes; type: cell-based, murine; conditions: added to glucose 30 mmol/L, 48 hours; nifedipine 10 μmol/L
Protocol: 3T3-L1 preadipocytes were incubated at a density of 8000 cells/cm^2 (10 cm^2 dish) and grown in Dulbecco's modified Eagle's medium (DMEM) containing 10% FBS and antibiotics (adipocyte medium) at 37° C. in 5% CO2 in air. Confluent preadipocytes were induced to differentiate with a standard differentiation medium consisting of DMEM-F 10 (1:1, vol/vol) medium supplemented with 1% FBS, 1 μM dexamethasone, IBMX (0.5 mM) and antibiotics (1% Penicillin-Streptomycin). Preadipocytes were maintained in this differentiation medium for 3 days and subsequently cultured in adipocyte medium. Cultures were re-fed every 2-3 days to allow 90% of cells to reach full differentiation before conducting chemical treatment. Chemicals were freshly diluted in adipocyte medium before treatment. […] Cell viability was measured via trypan blue exclusion. Adipocyte 18s, cyclin A, NADPH oxidase, and UCP2 were quantitatively measured using a Smart Cycler Real Time PCR System (Cepheid, Sunnyvale, Calif.) with a TaqMan 1000 Core Reagent Kit (Applied Biosystems, Branchburg, N.J.). […] Reactions of quantitative RT-PCR for standards and unknown samples were also performed according to the instructions of Smart Cycler System (Cepheid, Sunnyvale, Calif.) and TaqMan Real Time PCR Core Kit (Applied Biosystems, Branchburg, N.J.). The mRNA quantitation for each sample was further normalized using the corresponding 18s quantitation.

[2] = system: IL-6; assay: IL-6 expression in differentiated Zen-bio human adipocytes; type: cell-based; conditions: 10 nmol/L, 48 h; p=0.004
Protocol: Human pre-adipocytes used in this study were supplied by Zen-Bio (Research Triangle, N.C.). […] The cells are isolated from the stromal vascular fraction of human subcutaneous adipose tissue and differentiated in vitro as follows: […] Preadipocytes were maintained in this differentiation medium for 3 days and subsequently cultured in adipocyte medium in which BRL49653 and MIX were omitted. Cultures were re-fed every 2-3 days till fully differentiated. Cells were incubated in serum free medium overnight before chemical treatment. Chemicals were freshly diluted in adipocyte medium before treatment. […] Cell viability was measured via trypan blue exclusion. Adipocyte and muscle 18s, TNFα, IL-6, IL-8, IL-15 and adiponectin were quantitatively measured using a smart cycler real-time PCR system (Cepheid, Sunnyvale, Calif.) with a TaqMan 1000 Core Reagent Kit (Applied Biosystems, Branchburg, N.J.). […] Reactions of quantitative RT-PCR for standards and unknown samples were also performed according to the instructions of Smart Cycler System (Cepheid, Sunnyvale, Calif.) and TaqMan Real Time PCR Core Kit (Applied Biosystems, Branchburg, N.J.). The mRNA quantitation for each sample was further normalized using the corresponding 18s quantitation.

[3] = system: MIF; assay: MIF expression in mouse (3T3-L1) adipocytes; type: cell-based; conditions: calcitriol 10 nmol/L, 48 hours
Protocol: (§1) RAW 264 macrophages and 3T3-L1 preadipocytes (American Type Culture Collection) were incubated at a density of 8000 cells/cm2 (10 cm2 dish) and grown in Dulbecco's modified Eagle's medium (DMEM) containing 10% FBS and antibiotics (adipocyte medium) at 37° C. in 5% CO2 in air. Confluent 3T3-L1 preadipocytes were induced to differentiate with a standard differentiation medium consisting of DMEM-F10 (1:1, vol/vol) medium supplemented with 1% FBS, 1 μM dexamethasone, IBMX (0.5 mM) and antibiotics (1% Penicillin-Streptomycin). Preadipocytes were maintained in this differentiation medium for 3 days and subsequently cultured in adipocyte medium. […]
(§2) Cells were washed with fresh adipocyte medium, re-fed with medium containing the indicated treatments, and incubated at 37° C. in 5% CO2 for 48 hours before analysis. Cell viability was measured via trypan blue exclusion.
(§3) Adipocyte and muscle 18s, CD14, TNFα, MIP, M-CSF, IL-6 and MCP-1 were quantitatively measured using a Smart Cycler Real Time PCR System (Cepheid, Sunnyvale, Calif.) with a TaqMan 1000 Core Reagent Kit (Applied Biosystems, Branchburg, N.J.). […] Reactions of quantitative RT-PCR for standards and unknown samples were also performed according to the instructions of Smart Cycler System (Cepheid, Sunnyvale, Calif.) and TaqMan Real Time PCR Core Kit (Applied Biosystems, Branchburg, N.J.). […]

[4] = system: MIP; assay: MIP expression in 3T3-L1 adipocytes; type: cell-based, mouse; conditions: calcitriol 10 nmol/L, 48 hours
Protocol: as §1, §2, §3

[5] = system: IL-6; assay: IL-6 expression in RAW 264 macrophages; type: cell-based
Protocol: RAW 264 macrophages and 3T3-L1 preadipocytes (American Type Culture Collection) were incubated at a density of 8000 cells/cm2 (10 cm2 dish) and grown in Dulbecco's modified Eagle's medium (DMEM) containing 10% FBS and antibiotics (adipocyte medium) at 37° C. in 5% CO2 in air. Confluent 3T3-L1 preadipocytes were induced to differentiate with a standard differentiation medium consisting of DMEM-F10 (1:1, vol/vol) medium supplemented with 1% FBS, 1 μM dexamethasone, IBMX (0.5 mM) and antibiotics (1% Penicillin-Streptomycin). Preadipocytes were maintained in this differentiation medium for 3 days and subsequently cultured in adipocyte medium. Cultures were re-fed every 2-3 days to allow 90% cells to reach fully differentiation for 3T3-L1 adipocytes or grow to a confluence for RAW 264 before conducting chemical treatment.
Human adipocytes (Zen-Bio, Inc.), 3T3-L1 adipocytes, RAW264 macrophages were obtained and co-cultured by using transwell inserts with 0.4 μm porous membranes (Corning) to separate adipocytes and macrophages. All data are expressed as mean±SEM. Data were evaluated for statistical significance by analysis of one-way or two-way variance (ANOVA; means with different letter differ, p<0.05).
Adipocyte and muscle 18s, CD14, TNFα, MIP, M-CSF, IL-6 and MCP-1 were quantitatively measured using a Smart Cycler Real Time PCR System (Cepheid, Sunnyvale, Calif.) with a TaqMan 1000 Core Reagent Kit (Applied Biosystems, Branchburg, N.J.). The primers and probe sets were obtained from Applied Biosystems TaqMan® Assays-on-Demand™ Gene Expression primers and probe set collection according to manufacture's instruction. […] Reactions of quantitative RT-PCR for standards and unknown samples were also performed according to the instructions of Smart Cycler System (Cepheid, Sunnyvale, Calif.) and TaqMan Real Time PCR Core Kit (Applied Biosystems, Branchburg, N.J.). The mRNA quantitation for each sample was further normalized using the corresponding 18s quantitation.

With C=C1/C(=C\C=C2/CCC[C@]3(C)[C@@H]([C@H](C)CCCC(C)(C)O)CC[C@@H]23)C[C@@H](O)C[C@@H]1O [calcitriol, 1, 25-Dihydroxyvitamin D] the “effect on NADPH oxidase expression” value [1] was “stimulated”, the “stimulation of IL-6 expression” value [2] was 53% and the “increase of MIF expression” value [3] was 50%. For the same compound, the “effect on MIP expression” value [4] was “markedly stimulate”, the “effect on IL-6 expression in macrophages in co-culture” value ([5]; co-culture with differentiated 3T3-L1 adipocytes) was “further enhanced” and the “stimulation of IL-6 expression” value ([5]; macrophages cultured alone, calcitriol 10 nmol/L, 48 hours) was 796%.
